Reference: ChEMBL document CHEMBL3301361, “Experimental in vitro DMPK and physicochemical data on a set of publicly disclosed compounds”
Values after ≈ are worked out from the molar mass of the structure shown. Residues, ends and D or L forms follow the SMILES beside them.

Key:
physchem [1] = conditions: octan-1-ol/water
in vitro [2] = conditions: hepatocytes
in vitro [3] = conditions: human, plasma, PPB
physchem [4] = conditions: pH 7.4 buffer

SMILES | logD (physchem [1]; pH 7.4, LogD7.4) | hepatocyte CLint (in vitro [2]) [µL/min/1e6 cells] | further results
COc1ccc2ncc(F)c(CCN3CCC(NCc4ccc5c(n4)NC(=O)CO5)CC3)c2n1 | 1.78 | 39.8 | 
CCCCC[C@H](c1ccc(C(=O)O)c(Oc2cccc(Br)c2)c1)N1CCC[C@H](n2cc(C)c(=O)[nH]c2=O)C1 | 1.69 | 30.2 | 
CCCCCCCC(=O)N[C@@H](CCN)C(=O)N[C@H](C(=O)N[C@@H](CCN)C(=O)N[C@H]1CCNC(=O)[C@H](C)NC(=O)[C@H](CCN)NC(=O)[C@H](CCN)NC(=O)[C@H](CC(C)C)NC(=O)[C@@H](Cc2ccccc2)NC(=O)[C@H](CCN)NC1=O)[C@@H](C)O (HELM PEPTIDE1{[CCCCCCCC(=O)[*:2]].[Dab].T.[Dab].[Dab].[Dab].[dF].L.[Dab].[Dab].A}$PEPTIDE1,PEPTIDE1,5:R3-11:R2$$$V2.0) |  | < 3 | fraction unbound at 5 h (in vitro [3]): 0.0581
CC1=C(C(=O)O)N2C(=O)[C@@H](NC(=O)[C@H](N)c3ccc(O)cc3)[C@H]2SC1 [CEFADROXIL] | -0.86 | < 3 | 
NCCc1ccc(O)c2nc(O)sc12 |  | > 150 | logD (physchem [1]; pH 7.4): 0.33
C[C@@](CCc1ccc(-c2ccc(Cl)cc2)cc1)(C(=O)NO)S(C)(=O)=O | 2.4 | < 3 | 
C=CC(=O)Nc1ccc2ncnc(Nc3cccc(C)c3)c2c1 | 3.7 | > 150 | solubility thermodynamic (physchem [4]): 16.6 µM (≈ 5.05 µg/mL)
Cn1sc(=O)c2cc(S(=O)(=O)NC3CC3)ccc21 | 1.3 | > 150 | 
COc1cc2cc(-c3ccc(O)cc3O)nc(C)c2cc1OC |  | > 150 | 
CC(C)C[C@H](N)C(=O)NC[C@H](O)C[C@@H](N)CC(=O)NN(C)CC(=O)O |  | < 3 | 
CCC(C)(CC)C[C@H](c1ccc(C(=O)O)c(Oc2cccc(Br)c2)c1)N1CCC[C@H](n2cc(C)c(=O)[nH]c2=O)C1 | 1.97 | 69.2 | 
Cc1ccccc1-c1c(C(=O)O)n(CCCOc2cccc3ccccc23)c2ccccc12 | 3.89 | 123 | 
CCC(C)(C)C[C@H](c1ccc(C(=O)O)c(Oc2cccc(Cl)c2)c1)N1CCC[C@H](n2cc(C)c(=O)[nH]c2=O)C1 | 1.37 | 117 | 
CCNC(=O)c1ccc(C)c(-n2cnc3ccc(N4CCN(C)CC4)cc3c2=O)c1 | 1.47 | < 3 | 
COc1ccc2nc(C)cc(-n3cc(CN4CCN(C(C)=O)CC4)nn3)c2c1 | 1.3 | 5.13 | 
C[C@@](C(=O)O[C@H]1C[N+]2(CCCc3cncnc3)CCC1CC2)(c1ccccc1)N1CCCCC1 |  | 66 | 
CN[C@@H](C)C(=O)N[C@H](C(=O)N[C@H]1C[C@@H]2CC[C@H]1N(CCc1ccccc1)C2)C1CCCCC1 | 1.64 | 19.9 | 
C[C@@](C(=O)O[C@H]1C[N+]2(CC(=O)Nc3ccncn3)CCC1CC2)(c1ccccc1)N1CCCCC1 |  | 39 | 
O=C(O)CN1C(=O)C(=O)c2ccccc21 |  | 26.9 | 
Nc1cc(C(=O)Nc2cccc(-c3nnn[nH]3)c2)cc(C(F)(F)F)c1 | 0.2 | 23.4 | 

SMILES | logD (physchem [1]; pH 7.4, LogD7.4) | hepatocyte CLint (in vitro [2]) [µL/min/1e6 cells] | further results
Cc1nn(C)c(C)c1-c1cccc2c(CCCOc3cccc4ccccc34)c(C(=O)O)[nH]c12 |  | 61.7 | 
COc1ccc(C)c(Nc2ncc3ccn(-c4ccccn4)c3n2)c1 |  | 83.2 | 
COc1ccc(N(C(=O)c2ccccc2)C(C(=O)NC[C@@H](C)O)c2ccccc2F)c(OC)c1 (stereo partly drawn) |  | > 150 | 
O=c1c2ccccc2[nH]n1Cc1c[nH]c2ccccc12 |  | 4.37 | 
Cc1c(C(=O)NC2C3CC4CC(C3)CC2C4)cnn1-c1ccc(C(=O)O)cc1 (stereo not drawn) |  | < 3 | 
Cc1nc(C(=O)N2CCOC3(CCN(Cc4ccc(Cl)cc4)CC3)C2)cs1 | 2.17 | 47 | 
C[C@@H]1Cc2c([nH]c3cc(Cl)c(F)cc23)[C@]2(N1)C(=O)Nc1ccc(Cl)cc12 |  | 7.24 | 
Cc1ccc(C[C@@H](C(=O)O)N2CCC(CN3CCC(Oc4ccc(Cl)c(Cl)c4)CC3)CC2)cc1 |  | < 3 | 
NC1(c2ccc(-c3nc4ccccc4cc3-c3ccccc3)cc2)CCC1 |  | 148 | solubility thermodynamic (physchem [4]): 288 µM (≈ 101 µg/mL)
C[C@@](C(=O)O[C@H]1C[N+]2(CCOc3ccc(Cl)cc3)CCC1CC2)(c1ccccc1)N1CCCCC1 |  | 60 | 
Cc1cc(NC(=O)Nc2cccc3ccccc23)no1 |  | 95.5 | 
O=C(Nc1cccc(-c2nnn[nH]2)c1)c1cc(O)cc(C(F)(F)F)c1 | 0.8 | 29.5 | 
CNC(=O)c1c(F)cccc1Nc1nc(Nc2cc3c(cc2OC)CCN3C(=O)CN(C)C)nc2[nH]ccc12 | 2.61 | 21.9 | 
C[C@@](C(=O)O[C@H]1C[N+]2(CCOCCc3ccccc3)CCC1CC2)(c1ccccc1)N1CCCCC1 |  | 77 | 
O=C(O)c1cc2cc(OCc3ccccc3)ccc2[nH]1 | 0.4 | 25.7 | 
CCC(=C(c1ccc(O)cc1)c1ccc(OCCN(C)C)cc1)c1ccccc1 |  | 56.2 | 
CC1(C)CCC(c2ccc(Cl)cc2)=C(CN2CCN(c3ccc(C(=O)NS(=O)(=O)c4ccc(N[C@H](CCN5CCOCC5)CSc5ccccc5)c(S(=O)(=O)C(F)(F)F)c4)cc3)CC2)C1 [NAVITOCLAX] | 0.64 | 9.77 | 
CO[C@H]1C[C@@H]2CC[C@@H](C)[C@@](O)(O2)C(=O)C(=O)N2CCCC[C@H]2C(=O)O[C@H]([C@H](C)C[C@@H]2CC[C@@H](OC(=O)C(C)(CO)CO)[C@H](OC)C2)CC(=O)[C@H](C)/C=C(\C)[C@@H](O)[C@@H](OC)C(=O)[C@H](C)C[C@H](C)/C=C/C=C/C=C/1C [TEMSIROLIMUS] |  | > 150 | 
O=C([C@@H]1CCCN1)N1CCN(c2nc(NCc3ccc(Cl)cc3Cl)c3cccnc3n2)CC1 | 2.41 | 6 | 
CN(C)CC[C@H](CSc1ccccc1)Nc1ccc(S(=O)(=O)NC(=O)c2ccc(N3CCN(Cc4ccccc4-c4ccc(Cl)cc4)CC3)cc2)cc1[N+](=O)[O-] [ABT 737] |  | 9.55 | 

SMILES | logD (physchem [1]; pH 7.4, LogD7.4) | hepatocyte CLint (in vitro [2]) [µL/min/1e6 cells] | further results
Cc1ccc(-c2nc3ccccc3[nH]2)cc1NC(=O)c1ccc(OCc2ccccn2)cc1 | 3.24 | 10.2 | 
CN1CCN(c2ccc(-c3cnc4cccc(-c5cc(F)c(CN6CCOCC6)c(F)c5)c4n3)cc2)CC1 |  | 14.4 | 
C[C@@](C(=O)O[C@H]1C[N+]2(CCCc3cc4ccccc4s3)CCC1CC2)(c1ccccc1)N1CCCCC1 |  | 65 | 
O=C(O)c1cc2ccccc2[nH]1 [INDOLE-2-CARBOXYLIC ACID] |  | 11 | 
CO[C@H]1/C=C/O[C@@]2(C)Oc3c(C)c(O)c4c(O)c(cc(O)c4c3C2=O)NC(=O)/C(C)=C\C=C\[C@H](C)[C@H](O)[C@@H](C)[C@@H](O)[C@@H](C)[C@H](OC(C)=O)[C@@H]1C [RIFAMYCIN] | 1.19 | < 3 | 
CC(C)OC(=O)C(C)(C)Oc1ccc(C(=O)c2ccc(Cl)cc2)cc1 [FENOFIBRATE] |  | 54 | 
COC1=CC(c2cc3ccccc3[nH]2)=N/C1=C\c1[nH]c(C)cc1C [OBATOCLAX] | 2.55 | 22.4 | 
C[C@@](C(=O)O[C@H]1C[N+]2(CCCOc3ccc(F)cc3)CCC1CC2)(c1ccccc1)N1CCCCC1 |  | 66 | 
O=C(Nc1cccc(-c2nnn[nH]2)c1)c1cc(F)cc2nc[nH]c12 | 0.29 | 67.6 | 
CC(C)=CCC[N+]12CCC(CC1)[C@@H](OC(=O)[C@](C)(c1ccccc1)N1CCCCC1)C2 |  | 101 | 
O=C(Nc1cccc(-c2nnn[nH]2)c1)c1cccc2[nH]cnc12 | -0.05 | 44.7 | 
Cc1ccccc1C(OCCN(C)C)c1ccccc1 (stereo not drawn) [ORPHENADRINE] | 1.47 | > 150 | 
COc1ccc2ncc(=O)n(CCN3CCC(NCc4cc5c(cn4)OCCO5)CC3)c2c1 | 0.93 | > 150 | 
C[C@H]1Cc2c([nH]c3cc(Cl)c(F)cc23)[C@@]2(N1)C(=O)Nc1ccc(Cl)cc12 [CIPARGAMIN] |  | 8.71 | 
Cc1cc(Oc2cc(S(=O)(=O)N3CCC[C@H](n4cc(C)c(=O)[nH]c4=O)C3)ccc2O)ccc1Cl | 2.4 | 20.4 | 
Nc1ccc2c(-c3ccncc3)c(-c3ccc(F)cc3)[nH]c2n1 |  | 117 | 
CS(=O)(=O)N1CC[C@H](N(Cc2ccccc2Cl)c2ccc(C#N)c(Cl)c2)C1 |  | 72.4 | logD (physchem [1]; pH 7.4): 4
CSc1c(C(=O)NC2C3CC4CC(C3)CC2C4)cnn1-c1ccc(C(=O)O)cc1 (stereo not drawn) |  | 12.3 | 
Cc1cccc2c(O)nc(-c3ccc(C(F)(F)F)cc3)nc12 |  | 45.7 | 
CC[C@@]1(O)C(=O)OCc2c1cc1n(c2=O)Cc2cc3c(CN(C)C)c(O)ccc3nc2-1 [TOPOTECAN] | 0.31 | 3.24 | 
